Experimental data reported in patent US20250221413A1, “Use and Preparation Method of Sulfoxamyl, and Oxidation System” (priority 2023, published 2025).
≈ marks a conversion by molar mass, not a printed value. Where “and” joins values, the source holds several entries; their conditions need not be identical. Identical values can stand only once. Entries after “also recorded” stand apart in the source; their conditions may differ.

Columns and labels:
[1] = test system: SD rats; test: Acute skin toxicity test (limit test); type: in vivo
Experimental: (§1) Materials: the test agent 98% sulfoxamyl technical, batch number 20230708-1, was provided by Ningxia Hugerise Chemical Co., Ltd. Experimental animals: SPF-grade SD rats, half male and half female, weighing 180 g to 220 g, were provided by Jinan Pengyue Experimental Animal Breeding Co., Ltd., license number SCXK (Lu) 20190003. Rearing environment: the rats were housed in an SPF-grade animal room with free access to water and food, a temperature of 20° C. to 25° C., a humidity of 40% to 60%, and a 12 h/12 h light cycle. Feed: conventional pellet feed was provided by Jinan Pengyue Experimental Animal Breeding Co., Ltd.
(§2) The test was conducted in accordance with “Toxicological test methods of pesticides for registration, GB15670.5-2017”, “Acute toxicity test, GB15193.3-2003” and relevant acute toxicity research data.
(§3) Method: the sulfoxamyl was ground into powder, passed through a 200-mesh sieve, and fully moistened with 0.5% tragacanth solution to ensure desirable contact between the drug and the skin. The dose limit of the drug's transdermal toxicity was preliminarily determined through a limit test. According to the “Toxicological test methods of pesticides for registration, GB/T 15670.5-2017”, 2,000 mg/kg was selected as the dose limit. 10 SD rats were selected, half male and half female. After removing the fur and preparing the skin on the midline of the rats' backs, the prepared skin area was 36 cm^2 to 40 cm^2. The drug was evenly applied to the fur-removed area and covered and fixed with multiple layers of sterile gauze; after 24 h of exposure to the poison, the residual drug on the skin was removed; the rats were observed once a day for 14 consecutive days, and their poisoning reaction, development process, and death were recorded.

[2] = Acute skin toxicity test (limit test); type: in vivo, SD rats; conditions: both sexes, rat, in vivo, topical, 2000 mg/kg; SD rats, 24 h exposure, 14 days observation; read-out: acute percutaneous toxicity LD50
Experimental: as §1, §2, §3

[3] = test system: Meloidogyne incognita eggs; test: Inhibitory effect on hatching of Meloidogyne incognita eggs; type: in vivo
Excerpt: Materials: the tested nematodes were collected from three different areas, namely cucumber crops in Dawenkou Town, Tai'an City, Shandong Province, and were all identified as southern root-knot nematodes (Meloidogyne incognita). The diseased roots were washed, cut into small sections of 0.5 cm to 1 cm, rinsed in 1% NaClO solution for about 30 s to 60 s, and rinsed with 200-mesh and 500-mesh sieves to collect nematode eggs for later use.
The agent was 98% sulfoxamyl technical, and the comparison agents were 96% oxamyl technical and 87% fosthiazate technical.

[4] = test system: SD rats; test: Acute oral toxicity test, probability unit method (Bliss method), LD50 by Probit regression; type: in vivo; conditions: for Death count: 24 h
Experimental: as §1, §2
(§4) Methods: a single oral fixed-dose procedure was conducted to preliminarily explore the toxic dose range of sulfoxamyl. LD50 and confidence limits were calculated by using the probability unit method (Bliss method). SD rats were randomly divided into 5 groups, 10 rats in each group, half of them were male and half were female. The dosages administered to each group were 474.61 mg/kg, 632.81 mg/kg, 843.75 mg/kg, 1,125 mg/kg, and 1,500 mg/kg. The common ratio value among each dose group was 0.75. After a single oral administration, the mortality rate of the experimental animals was recorded within 24 h and 14 days after administration, while the general condition of the animals was observed, and the food intake and body weight changes were recorded.
(§5) According to the above test dose, number of animals, number of deaths and other data, SPSS statistical software was used to calculate LD50 by Probit regression, and the results are shown in Table 3.

[5] = as above; type: in vivo, SD rats; conditions: both sexes, Sprague-Dawley, rat, in vivo, po; SD rats, Probit regression
Experimental: as §1, §2, §4, §5

[6] = Meloidogyne incognita, 168 h, egg hatching, 7 d

## CNC(=O)O/N=C(/C(=O)N(C)C)S(C)(=O)=O [Sulfoxamyl, N,N-dimethyl-2-[[[(methylamino)carbonyl]oxy]imino]-2-(methylsulfonyl)acetamide]
[1]; 2,000 mg/kg
  percutaneous toxicity, in words: no percutaneous toxicity
[1]; 2,000 mg/kg on skin, 10 SD rats
  Main clinical symptom: skin is intact, normal in color, and without redness or swelling
[1]; 2,000 mg/kg on skin, 10 SD rats, 14 days
  deaths: none of the 10 rats die
[1]; 2,000 mg/kg on skin, 10 SD rats, listed as sulfoxamyl
  Main clinical symptom: Normal
[1]; GB15670-1995 classification
  toxicity level (acute percutaneous): low toxic; also recorded: Low Toxicity
[2]
  LD50 at 14 days: > 2000 mg/kg
[3]; 6.25 mg/L, 7 d
  Number of hatched eggs/7 d: 102 and 92 and 96
  Number of unhatched eggs/7 d: 31 and 25 and 33
[3]; 12.5 mg/L, 7 d
  Number of hatched eggs/7 d: 83 and 85 and 88
  Number of unhatched eggs/7 d: 32 and 33 and 40
[3]; 25 mg/L, 7 d
  Number of hatched eggs/7 d: 85 and 79 and 86
  Number of unhatched eggs/7 d: 45 and 41 and 38
[3]; 50 mg/L, 7 d
  Number of hatched eggs/7 d: 57 and 55 and 49
  Number of unhatched eggs/7 d: 81 and 75 and 77
[3]; 100 mg/L, 7 d
  Number of hatched eggs/7 d: 44 and 40 and 42
  Number of unhatched eggs/7 d: 93 and 85 and 88
[3]; [6]
  IC50: 59.5 µg/mL (≈ 237 µM)
  IC90: 511 µg/mL (≈ 2030 µM)
[3]; in vivo
  inhibitory effect on hatching of nematode eggs, in words: desirable inhibitory effect
[4]; GB15670-1995 classification
  toxicity level (acute oral): low toxic; also recorded: Low Toxicity
[4]; Probability 0.010
  Probit Estimation for dose: 379.474 mg/kg
  Probit Estimation for log(dose): 2.579
[4]; Probability 0.020
  Probit Estimation for dose: 415.442 mg/kg
  Probit Estimation for log(dose): 2.619
[4]; Probability 0.030
  Probit Estimation for dose: 440.010 mg/kg
  Probit Estimation for log(dose): 2.643
[4]; Probability 0.040
  Probit Estimation for dose: 459.445 mg/kg
  Probit Estimation for log(dose): 2.662
[4]; Probability 0.050
  Probit Estimation for dose: 475.885 mg/kg
  Probit Estimation for log(dose): 2.678
[4]; Probability 0.060
  Probit Estimation for dose: 490.341 mg/kg
  Probit Estimation for log(dose): 2.690
[4]; Probability 0.070
  Probit Estimation for dose: 503.377 mg/kg
  Probit Estimation for log(dose): 2.702
[4]; Probability 0.080
  Probit Estimation for dose: 515.342 mg/kg
  Probit Estimation for log(dose): 2.712
[4]; Probability 0.090
  Probit Estimation for dose: 526.471 mg/kg
  Probit Estimation for log(dose): 2.721
[4]; Probability 0.100
  Probit Estimation for dose: 536.928 mg/kg
  Probit Estimation for log(dose): 2.730
[4]; Probability 0.150
  Probit Estimation for dose: 582.478 mg/kg
  Probit Estimation for log(dose): 2.765
[4]; Probability 0.200
  Probit Estimation for dose: 621.421 mg/kg
  Probit Estimation for log(dose): 2.793
[4]; Probability 0.250
  Probit Estimation for dose: 656.898 mg/kg
  Probit Estimation for log(dose): 2.817
[4]; Probability 0.300
  Probit Estimation for dose: 690.481 mg/kg
  Probit Estimation for log(dose): 2.839
[4]; Probability 0.350
  Probit Estimation for dose: 723.131 mg/kg
  Probit Estimation for log(dose): 2.859
[4]; Probability 0.400
  Probit Estimation for dose: 755.539 mg/kg
  Probit Estimation for log(dose): 2.878
[4]; Probability 0.450
  Probit Estimation for dose: 788.276 mg/kg
  Probit Estimation for log(dose): 2.897
[4]; Probability 0.500
  Probit Estimation for dose: 821.879 mg/kg
  Probit Estimation for log(dose): 2.915
[4]; Probability 0.550
  Probit Estimation for dose: 856.914 mg/kg
  Probit Estimation for log(dose): 2.933
[4]; Probability 0.600
  Probit Estimation for dose: 894.044 mg/kg
  Probit Estimation for log(dose): 2.951
[4]; Probability 0.650
  Probit Estimation for dose: 934.112 mg/kg
  Probit Estimation for log(dose): 2.970
[4]; Probability 0.700
  Probit Estimation for dose: 978.282 mg/kg
  Probit Estimation for log(dose): 2.990
[4]; Probability 0.750
  Probit Estimation for dose: 1028.295 mg/kg
  Probit Estimation for log(dose): 3.012
[4]; Probability 0.800
  Probit Estimation for dose: 1087.001 mg/kg
  Probit Estimation for log(dose): 3.036
[4]; Probability 0.850
  Probit Estimation for dose: 1159.674 mg/kg
  Probit Estimation for log(dose): 3.064
[4]; Probability 0.900
  Probit Estimation for dose: 1258.055 mg/kg
  Probit Estimation for log(dose): 3.100
[4]; oral 474.61 mg/kg
  Main clinical symptom: Asymptomatic
[4]; oral 474.61 mg/kg, 474.61 mg/kg
  Death count: no experimental animals and 0/10
[4]; oral 632.81 mg/kg
  Main clinical symptom: Intense abdominal breathing,
[4]; oral 632.81 mg/kg, 632.81 mg/kg
  Death count: 3 and 3/10
[4]; oral 843.75 mg/kg
  Main clinical symptom: Intense abdominal breathing, malaise, drooling, tremors
[4]; oral 843.75 mg/kg, 843.75 mg/kg
  Death count: 6 and 6/10
[4]; oral 1125 mg/kg
  Main clinical symptom: Intense abdominal breathing, malaise, drooling, tremors
[4]; oral 1125 mg/kg, 1125 mg/kg
  Death count: 7 and 8/10
[4]; oral 1500 mg/kg
  Main clinical symptom: Intense abdominal breathing,
[4]; oral 1500 mg/kg, 1500 mg/kg
  Death count: all animals and 10/10
[4]; oral, all dose groups
  new deaths 14 days after administration compared to 24 h: no new deaths
[5]
  LD50 at 14 days: 822 mg/kg
